The nature of this data set: Solubility test in water (visual inspection for an insoluble residue). The format is physicochemical. To be noted: for solubility in water relative to the solubility of hpp2Py in water: fraction of the hpp2Py solubility in water. The method, then:
In a sample bottle (capacity: 20 mL) was put 1.16 mg of 1,1′-(9,9′-spirobi[9H-fluorene]-2,7-diyl)bis(1,3,4,6,7,8-hexahydro-2H-pyrimido[1,2-a]pyrimidine) (abbreviation: 2,7hpp2SF), and 0.5 mL of water was added thereto. This mixture was irradiated with ultrasonic waves for one minute. A precipitated white powder was found by visual inspection for an insoluble residue. After further addition of 0.5 mL of water and one-minute ultrasonic wave irradiation, a precipitated white powder was found by visual inspection. This procedure was repeatedly executed until the dissolution was confirmed by visual inspection.
The precipitated white powder was found until the total amount of water reached 3.0 mL. After further addition of 0.5 mL of water and ultrasonic wave irradiation, no precipitated white powder was found.
In a sample bottle (capacity: 100 mL) was put 1.08 mg of 1-(9,9′-spirobi[9H-fluorene]-2-yl)-1,3,4,6,7,8-hexahydro-2H-pyrimido[1,2-a]pyrimidine) (abbreviation: 2hppSF), and 50 mL of water was added thereto. A precipitated white powder was found by visual inspection for an insoluble residue. When 10 mL of water was further added, the precipitated white powder was not observed by visual inspection.
In a sample bottle (capacity: 5 mL) was put 50.2 mg of 1,1′-pyridine-2,6-diyl-bis(1,3,4,6,7,8-hexahydro-2H-pyrimido[1,2-a]pyrimidine) (abbreviation: hpp2Py), and 1.0 mL of water was added thereto. The dissolution was found by visual inspection for an insoluble residue.

Consider `c1cc(N2CCCN3CCCN=C32)nc(N2CCCN3CCCN=C32)c1` [hpp2Py, 1,1′-pyridine-2,6-diyl-bis(1,3,4,6,7,8-hexahydro-2H-pyrimido[1,2-a]pyrimidine), reference compound], for which the “weight which can be dissolved in 1.0 mL of water” value (per 1.0 mL of water, dissolution confirmed by visual inspection) is given as “greater than or equal to 50.2 mg”. Turning to `c1ccc2c(c1)-c1ccccc1C21c2ccccc2-c2ccc(N3CCCN4CCCN=C43)cc21` [2hppSF, 1-(9,9′-spirobi[9H-fluoren]-2-yl)-1,3,4,6,7,8-hexahydro-2H-pyrimido[1,2-a]pyrimidine], the “solubility in water relative to the solubility of hpp2Py in water” value is given as “less than or equal to 1/10”. Regarding `c1ccc2c(c1)-c1ccccc1C21c2cc(N3CCCN4CCCN=C43)ccc2-c2ccc(N3CCCN4CCCN=C43)cc21` [2,7hpp2SF, 1,1′-(9,9′-spirobi[9H-fluoren]-2,7-diyl)bis(1,3,4,6,7,8-hexahydro-2H-pyrimido[1,2-a]pyrimidine)], the “solubility in water relative to the solubility of hpp2Py in water” value is “less than or equal to 1/10”.
